Data published in ChEMBL document CHEMBL4680222, “Sensitive fluorogenic substrates for sirtuin deacylase inhibitor discovery” (Eur J Med Chem, 2020).
*1 amine or outer side, *2 acyl side, *3 side chain or, on linkers, in order; H or OH if unused. Where a SMILES comes first, the peptide text is derived from it. The star is where a group is joined. AMC = Cc1cc(=O)oc2cc(N*)ccc12; Suc = O=C(CCC(=O)[*:2])[*:1]; Decanoyl = CCCCCCCCCC(=O)*

How the values were obtained:
[1] = target: T1, NAD-dependent protein deacetylase sirtuin-7 (Homo sapiens) (UniProt Q9NRC8); test: Substrate activity at human N-terminal His-tagged SIRT7 (68 to 354 residues) expressed in Escherichia coli at 5 uM measured after 2 hrs in presence of NAD+ and trypsin by fluorescence assay
T1 sequence (whole entry): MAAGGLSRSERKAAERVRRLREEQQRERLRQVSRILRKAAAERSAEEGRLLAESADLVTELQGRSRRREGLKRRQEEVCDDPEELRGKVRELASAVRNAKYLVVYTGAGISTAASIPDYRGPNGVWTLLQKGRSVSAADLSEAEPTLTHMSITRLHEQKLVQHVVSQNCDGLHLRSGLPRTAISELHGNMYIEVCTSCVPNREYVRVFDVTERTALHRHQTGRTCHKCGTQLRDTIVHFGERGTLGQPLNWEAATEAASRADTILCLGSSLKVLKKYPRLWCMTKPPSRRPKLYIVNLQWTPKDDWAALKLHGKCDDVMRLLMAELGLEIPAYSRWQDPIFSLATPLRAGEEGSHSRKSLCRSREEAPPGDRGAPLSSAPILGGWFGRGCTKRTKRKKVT

[2] = target: NAD-dependent protein deacylase sirtuin-5, mitochondrial (Homo sapiens) (UniProt Q9NXA8); test: Substrate activity at human N-terminal His-tagged SIRT5 (34 to 302 residues) expressed in Escherichia coli at 0.5 uM measured after 2 hrs in presence of NAD+ and trypsin by fluorescence assay
Sequence of NAD-dependent protein deacylase sirtuin-5, mitochondrial (Homo sapiens) (Q9NXA8 37-310 limits assumed): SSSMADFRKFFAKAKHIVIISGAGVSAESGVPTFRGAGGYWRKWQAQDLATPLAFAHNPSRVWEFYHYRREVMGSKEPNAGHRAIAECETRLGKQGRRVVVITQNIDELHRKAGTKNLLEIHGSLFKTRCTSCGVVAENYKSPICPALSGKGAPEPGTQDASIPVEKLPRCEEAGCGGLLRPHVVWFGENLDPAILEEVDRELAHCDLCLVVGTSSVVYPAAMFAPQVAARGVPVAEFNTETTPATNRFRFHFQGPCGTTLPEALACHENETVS

[3] = target: T2, NAD-dependent protein deacetylase sirtuin-2 (Homo sapiens) (UniProt Q8IXJ6); test: Substrate activity at human N-terminal His-tagged SIRT2 (56 to 356 residues) expressed in Escherichia coli at 50 uM measured after 2 hrs in presence of NAD+ and trypsin by fluorescence assay
T2 sequence (whole entry): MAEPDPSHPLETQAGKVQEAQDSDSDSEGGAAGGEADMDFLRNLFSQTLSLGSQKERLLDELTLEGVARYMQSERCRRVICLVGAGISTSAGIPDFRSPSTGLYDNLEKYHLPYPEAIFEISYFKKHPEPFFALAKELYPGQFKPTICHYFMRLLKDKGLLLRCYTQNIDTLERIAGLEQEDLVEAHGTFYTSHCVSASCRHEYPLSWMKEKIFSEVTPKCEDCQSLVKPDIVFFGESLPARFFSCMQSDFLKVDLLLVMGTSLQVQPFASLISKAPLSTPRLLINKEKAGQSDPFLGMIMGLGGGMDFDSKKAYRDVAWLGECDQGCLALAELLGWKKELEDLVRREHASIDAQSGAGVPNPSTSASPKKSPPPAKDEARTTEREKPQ

[4] = target: T2, NAD-dependent protein deacetylase sirtuin-2 (Homo sapiens); test: Substrate activity at human N-terminal His-tagged SIRT2 (56 to 356 residues) expressed in Escherichia coli at 0.5 uM measured after 2 hrs in presence of NAD+ and trypsin by fluorescence assay
[5] = target: NAD-dependent protein deacylase sirtuin-6 (Homo sapiens) (UniProt Q8N6T7); test: Substrate activity at human N-terminal His-tagged SIRT6 (1 to 355 residues) expressed in Escherichia coli at 0.5 uM measured after 2 hrs in presence of NAD+ and trypsin by fluorescence assay
Sequence of NAD-dependent protein deacylase sirtuin-6 (Homo sapiens) (Q8N6T7 whole entry, the tested form may be a part): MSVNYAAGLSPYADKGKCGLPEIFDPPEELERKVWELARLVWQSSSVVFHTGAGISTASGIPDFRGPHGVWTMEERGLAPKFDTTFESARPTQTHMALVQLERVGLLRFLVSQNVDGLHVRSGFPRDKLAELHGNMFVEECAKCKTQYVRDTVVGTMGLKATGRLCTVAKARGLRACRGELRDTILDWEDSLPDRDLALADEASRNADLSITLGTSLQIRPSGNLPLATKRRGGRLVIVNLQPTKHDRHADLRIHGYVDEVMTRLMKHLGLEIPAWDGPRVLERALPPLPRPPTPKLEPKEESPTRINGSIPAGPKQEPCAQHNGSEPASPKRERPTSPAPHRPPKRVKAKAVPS

[6] = target: T1, NAD-dependent protein deacetylase sirtuin-7 (Homo sapiens); test: Substrate activity at human N-terminal His-tagged SIRT7 (68 to 354 residues) expressed in Escherichia coli at 50 uM measured after 2 hrs in presence of NAD+ and trypsin by fluorescence assay
[7] = target: T3, NAD-dependent protein deacetylase sirtuin-3, mitochondrial (Homo sapiens) (UniProt Q9NTG7); test: Substrate activity at human N-terminal His-tagged SIRT3 (122 to 391 residues) expressed in Escherichia coli at 5 uM measured after 2 hrs in presence of NAD+ and trypsin by fluorescence assay
T3 sequence (whole entry): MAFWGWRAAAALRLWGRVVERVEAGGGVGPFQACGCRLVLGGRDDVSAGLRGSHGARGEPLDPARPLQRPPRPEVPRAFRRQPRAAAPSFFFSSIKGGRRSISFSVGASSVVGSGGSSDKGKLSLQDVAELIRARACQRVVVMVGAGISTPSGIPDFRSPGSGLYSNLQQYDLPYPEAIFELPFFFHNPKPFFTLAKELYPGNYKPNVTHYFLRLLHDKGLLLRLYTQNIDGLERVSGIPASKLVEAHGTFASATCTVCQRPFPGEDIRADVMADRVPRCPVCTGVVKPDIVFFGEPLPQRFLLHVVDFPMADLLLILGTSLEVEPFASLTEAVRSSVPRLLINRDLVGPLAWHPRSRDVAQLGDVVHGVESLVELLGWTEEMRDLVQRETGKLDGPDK

[8] = target: NAD-dependent protein deacylase sirtuin-6 (Homo sapiens) (UniProt Q8N6T7); test: Substrate activity at human N-terminal His-tagged SIRT6 (1 to 355 residues) expressed in Escherichia coli at 50 uM measured after 2 hrs in presence of NAD+ and trypsin by fluorescence assay
[9] = target: NAD-dependent protein deacylase sirtuin-5, mitochondrial (Homo sapiens) (UniProt Q9NXA8); test: Substrate activity at human N-terminal His-tagged SIRT5 (34 to 302 residues) expressed in Escherichia coli at 5 uM measured after 2 hrs in presence of NAD+ and trypsin by fluorescence assay
[10] = target: T1, NAD-dependent protein deacetylase sirtuin-7 (Homo sapiens); test: Substrate activity at human N-terminal His-tagged SIRT7 (68 to 354 residues) expressed in Escherichia coli at 0.5 uM measured after 2 hrs in presence of NAD+ and trypsin by fluorescence assay
[11] = target: T3, NAD-dependent protein deacetylase sirtuin-3, mitochondrial (Homo sapiens); test: Substrate activity at human N-terminal His-tagged SIRT3 (122 to 391 residues) expressed in Escherichia coli at 50 uM measured after 2 hrs in presence of NAD+ and trypsin by fluorescence assay
[12] = target: T3, NAD-dependent protein deacetylase sirtuin-3, mitochondrial (Homo sapiens); test: Substrate activity at human N-terminal His-tagged SIRT3 (122 to 391 residues) expressed in Escherichia coli at 0.5 uM measured after 2 hrs in presence of NAD+ and trypsin by fluorescence assay
[13] = target: T4, NAD-dependent protein deacetylase sirtuin-1 (Homo sapiens) (UniProt Q96EB6); test: Substrate activity at human N-terminal His-tagged SIRT1 (183 to 664 residues) expressed in Escherichia coli at 50 uM measured after 2 hrs in presence of NAD+ and trypsin by fluorescence assay
T4 sequence (whole entry): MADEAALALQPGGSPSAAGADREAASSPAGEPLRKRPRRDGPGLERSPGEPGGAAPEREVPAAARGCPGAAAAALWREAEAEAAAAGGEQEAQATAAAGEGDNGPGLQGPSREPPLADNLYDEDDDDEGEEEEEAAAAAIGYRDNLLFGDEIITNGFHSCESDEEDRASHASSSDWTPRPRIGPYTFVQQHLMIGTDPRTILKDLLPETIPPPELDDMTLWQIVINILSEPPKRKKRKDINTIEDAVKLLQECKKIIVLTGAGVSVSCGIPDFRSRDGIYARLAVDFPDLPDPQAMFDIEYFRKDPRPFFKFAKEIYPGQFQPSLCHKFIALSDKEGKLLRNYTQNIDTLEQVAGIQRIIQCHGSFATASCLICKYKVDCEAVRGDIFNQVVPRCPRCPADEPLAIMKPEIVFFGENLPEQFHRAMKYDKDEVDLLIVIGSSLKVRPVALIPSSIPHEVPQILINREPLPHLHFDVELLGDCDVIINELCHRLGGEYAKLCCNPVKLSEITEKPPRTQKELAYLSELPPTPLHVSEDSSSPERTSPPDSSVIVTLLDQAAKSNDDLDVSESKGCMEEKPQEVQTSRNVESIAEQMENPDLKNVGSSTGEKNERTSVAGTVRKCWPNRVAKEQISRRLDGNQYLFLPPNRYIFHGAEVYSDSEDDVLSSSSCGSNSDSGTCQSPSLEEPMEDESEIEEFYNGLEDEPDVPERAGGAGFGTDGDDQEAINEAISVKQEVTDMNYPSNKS

[14] = target: T4, NAD-dependent protein deacetylase sirtuin-1 (Homo sapiens); test: Substrate activity at human N-terminal His-tagged SIRT1 (183 to 664 residues) expressed in Escherichia coli at 5 uM measured after 2 hrs in presence of NAD+ and trypsin by fluorescence assay
[15] = target: T2, NAD-dependent protein deacetylase sirtuin-2 (Homo sapiens); test: Substrate activity at human N-terminal His-tagged SIRT2 (56 to 356 residues) expressed in Escherichia coli at 5 uM measured after 2 hrs in presence of NAD+ and trypsin by fluorescence assay
[16] = target: T4, NAD-dependent protein deacetylase sirtuin-1 (Homo sapiens); test: Substrate activity at human N-terminal His-tagged SIRT1 (183 to 664 residues) expressed in Escherichia coli at 0.5 uM measured after 2 hrs in presence of NAD+ and trypsin by fluorescence assay
[17] = target: NAD-dependent protein deacylase sirtuin-5, mitochondrial (Homo sapiens) (UniProt Q9NXA8); test: Substrate activity at human N-terminal His-tagged SIRT5 (34 to 302 residues) expressed in Escherichia coli at 50 uM measured after 2 hrs in presence of NAD+ and trypsin by fluorescence assay
[18] = target: NAD-dependent protein deacylase sirtuin-6 (Homo sapiens) (UniProt Q8N6T7); test: Substrate activity at human N-terminal His-tagged SIRT6 (1 to 355 residues) expressed in Escherichia coli at 5 uM measured after 2 hrs in presence of NAD+ and trypsin by fluorescence assay

SMILES | Activity [1] [RFU] | Activity [2] [RFU] | Activity [3] [RFU] | Activity [4] [RFU] | Activity [5] [RFU] | Activity [6] [RFU] | Activity [7] [RFU] | Activity [8] [RFU] | Activity [9] [RFU] | Activity [10] [RFU] | Activity [11] [RFU] | Activity [12] [RFU] | Activity [13] [RFU] | Activity [14] [RFU] | Activity [15] [RFU] | Activity [16] [RFU] | Activity [17] [RFU] | Activity [18] [RFU]
CC(=O)NCCCC[C@H](NC(=O)[C@H](CC(C)C)NC(=O)[C@H](CCCCN)NC(=O)[C@H](Cc1ccc(O)cc1)NC(C)=O)C(=O)Nc1ccc2c(C)cc(=O)oc2c1 (Ac-YKLK(Ac)-{AMC}) | 1.09 | 0.24 | 25.2 | 0.52 | 0.5 | 0.97 | 2.28 | 0.97 | 0.31 | 0.31 | 9.82 | 0.54 | 33 | 6.39 | 3.84 | 0.52 | 1.29 | 0.39
CCCCCCCCCC(=O)NCCCC[C@H](NC(=O)[C@H](CCCNC(=N)N)NC(=O)[C@H](CC(C)C)NC(=O)[C@H](CC(=O)O)NC(C)=O)C(=O)Nc1ccc2c(C)cc(=O)oc2c1 (Ac-DLRK(Decanoyl)-{AMC}) | 0.3 | 0.24 | 2.6 | 0.26 | 0.51 | 1.5 | 0.51 | 1.5 | 0.36 | 0.34 | 1.79 | 0.4 | 2.28 | 0.89 | 1.03 | 0.26 | 1.54 | 0.62
CC[C@H](C)[C@H](NC(=O)[C@H](CC(C)C)NC(=O)[C@H](CCCNC(=N)N)NC(C)=O)C(=O)N[C@@H](CCCCNC(C)=O)C(=O)Nc1ccc2c(C)cc(=O)oc2c1 (Ac-RLIK(Ac)-{AMC}) | 3.2 | 0.22 | 32.5 | 0.66 | 0.45 | 0.71 | 14.2 | 0.71 | 0.27 | 0.27 | 28.2 | 2.66 | 24.1 | 18.3 | 4.96 | 0.66 | 0.98 | 0.32
CC(=O)NCCCC[C@H](NC(=O)[C@H](CCCNC(=N)N)NC(=O)[C@H](C)NC(=O)[C@@H](NC(C)=O)[C@@H](C)O)C(=O)Nc1ccc2c(C)cc(=O)oc2c1 (Ac-TARK(Ac)-{AMC}) | 0.28 | 0.26 | 0.48 | 0.2 | 0.35 | 0.43 | 0.38 | 0.43 | 0.27 | 0.39 | 0.88 | 0.31 | 0.97 | 0.33 | 0.22 | 0.2 | 0.7 | 0.34
CC[C@H](C)[C@H](NC(C)=O)C(=O)N[C@@H](CCCNC(=N)N)C(=O)N[C@H](C(=O)N[C@@H](CCCCNC(=O)CCC(=O)O)C(=O)Nc1ccc2c(C)cc(=O)oc2c1)[C@@H](C)CC (Ac-IRIK(Suc)-{AMC}) | 0.34 | 0.32 | 1.03 | 0.21 | 0.4 | 1.89 | 0.64 | 1.89 | 0.82 | 0.29 | 2.47 | 0.49 | 2.05 | 0.55 | 0.33 | 0.21 | 2.63 | 0.44
CCCCCCCCCC(=O)NCCCC[C@H](NC(=O)[C@H](CCCCN)NC(=O)[C@@H]1CCCN1C(=O)[C@H](CC(N)=O)NC(C)=O)C(=O)Nc1ccc2c(C)cc(=O)oc2c1 (Ac-NPKK(Decanoyl)-{AMC}) | 0.49 | 0.31 | 5.3 | 0.29 | 0.39 | 1.32 | 0.79 | 1.32 | 0.34 | 0.29 | 3.19 | 0.51 | 2.87 | 0.76 | 1.18 | 0.29 | 1.99 | 0.42
